# Laboratory results reported in patent US20260069552A1, “Methods of Providing a Cooling Sensation to Skin Afflicted with Eczema” (Kenvue Brands LLC, priority 2022, published 2026).
# System: Staphylococcus epidermidis (ATCC 12228)
# Experiment: In vitro bacteria competition assay (co-culture)
# Format: cell-based
# Details: 1:1 co-culture with S. aureus in Nutrient Broth, 24 hours aerobic, CFU/mL; versus untreated; w/v % as in label; n=3
# Protocol: In vitro bacteria competition assay evaluated Staphylococcus epidermidis (ATCC 12228, skin health associated strain) and Staphylococcus aureus (ATCC 6538, human lesion isolate) co-culture in the presence of test materials. Percentages are w/v % in liquid medium (Nutrient Broth, Culture Media and Supplies Inc.) To mimic the microenvironment of the skin surface, an aerobic, co-culture system of S. epidermidis and S. aureus was established. 50 μL S. epidermidis and 50 μL S. aureus (a 1:1 ratio) were inoculated (50 μL at approximately 5.0×10^6 CFU/mL each) in Nutrient Broth and in the presence of the test materials as specified in Table 14 below. [table] Test groups were incubated aerobically for 24 hours (n=3 per test group) After 24 hours, each test group was plated onto agar and incubated aerobically for 24 hours […]. After incubation, colonies were counted, and CFU/mL calculated. S. epidermidis and S. aureus colonies were differentiated on agar (Tryptic Soy Agar+5% sheep's blood, BD Diagnostics) based on representative morphology.
smiles,measurement,value
"CC(O)C(=O)O (stereo not shown) [Lactic Acid (1.1%), Lactic acid]",S. epidermidis growth in bacteria competition assay,inhibited
